# Test results reported in the supplement of paper PMC10627819.
# Legend:
# Test in all cases: Bliss interaction score (quartile over a dose matrix) (fitness difference); higher = more antagonism (negative = synergy)
# B. subtilis 168 = system: B. subtilis 168
# Outline: (§1)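 Growth was read as OD595 when cultures entered stationary phase, and each value was divided by the plate's robust no-drug mean and capped at 1. This normalised ratio is the fitness value, and fitness for each single drug came from the combination data. The Bliss score subtracts the expected fitness, taken as the product, from the observed fitness and is given as quartiles across technical, biological and donor/recipient replicates.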
# S. aureus DSM 20231 = system: S. aureus DSM 20231
# Outline: as §1
# S. aureus Newman = system: S. aureus Newman
# Outline: as §1
# S. pneumoniae D39V = system: S. pneumoniae D39V
# Outline: as §1
# 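Also: first quartile when negative (synergy) and third quartile when positive (antagonism).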
structure (smiles),measurement,setting,value
CC[C@H]1OC(=O)[C@H](C)[C@@H](O[C@H]2C[C@@](C)(OC)[C@@H](O)[C@H](C)O2)[C@H](C)[C@@H](O[C@@H]2O[C@H](C)C[C@H](N(C)C)[C@H]2O)[C@](C)(O)C[C@@H](C)CN(C)[C@H](C)[C@@H](O)[C@]1(C)O [Azithromycin] + C1=CC(=CC(=C1)Cl)NN=C(C#N)C#N [CCCP],Bliss interaction score,B. subtilis 168,-0.104
same,Bliss interaction score,S. aureus DSM 20231,-0.0316
same,Bliss interaction score,S. aureus Newman,-0.0482
same,Bliss interaction score,S. pneumoniae D39V,-0.0621
CC[C@H]1OC(=O)[C@H](C)[C@@H](O[C@H]2C[C@@](C)(OC)[C@@H](O)[C@H](C)O2)[C@H](C)[C@@H](O[C@@H]2O[C@H](C)C[C@H](N(C)C)[C@H]2O)[C@](C)(O)C[C@@H](C)CN(C)[C@H](C)[C@@H](O)[C@]1(C)O [Azithromycin] + CC1(C)S[C@@H]2[C@H](NC(=O)Cc3ccccc3)C(=O)N2[C@H]1C(=O)O [PenicillinG],Bliss interaction score,B. subtilis 168,0.0629
same,Bliss interaction score,S. aureus DSM 20231,-0.0514
same,Bliss interaction score,S. aureus Newman,-0.087
same,Bliss interaction score,S. pneumoniae D39V,0.0489
CC[C@H]1OC(=O)[C@H](C)[C@@H](O[C@H]2C[C@@](C)(OC)[C@@H](O)[C@H](C)O2)[C@H](C)[C@@H](O[C@@H]2O[C@H](C)C[C@H](N(C)C)[C@H]2O)[C@](C)(O)C[C@@H](C)CN(C)[C@H](C)[C@@H](O)[C@]1(C)O [Azithromycin] + CC(=O)O[C@H]1C[C@@]2(C)[C@@H](C[C@@H](O)[C@H]3[C@@]4(C)CC[C@@H](O)[C@@H](C)[C@@H]4CC[C@@]32C)/C1=C(\CCC=C(C)C)C(=O)O [Fusidic acid],Bliss interaction score,B. subtilis 168,-0.119
same,Bliss interaction score,S. aureus DSM 20231,-0.0342
same,Bliss interaction score,S. aureus Newman,0.0362
same,Bliss interaction score,S. pneumoniae D39V,-0.0761
CC[C@H]1OC(=O)[C@H](C)[C@@H](O[C@H]2C[C@@](C)(OC)[C@@H](O)[C@H](C)O2)[C@H](C)[C@@H](O[C@@H]2O[C@H](C)C[C@H](N(C)C)[C@H]2O)[C@](C)(O)C[C@@H](C)CN(C)[C@H](C)[C@@H](O)[C@]1(C)O [Azithromycin] + CC[C@H]1OC(=O)[C@H](C)C(=O)[C@H](C)[C@@H](O[C@@H]2O[C@H](C)C[C@H](N(C)C)[C@H]2O)[C@](C)(OC)C[C@@H](C)C(=O)[C@H](C)[C@H]2N(CCCCn3cnc(-c4cccnc4)c3)C(=O)O[C@]12C [Telithromycin],Bliss interaction score,B. subtilis 168,0.0342
same,Bliss interaction score,S. aureus DSM 20231,-0.0311
same,Bliss interaction score,S. aureus Newman,-0.0389
same,Bliss interaction score,S. pneumoniae D39V,0.0272
CN(C)CCCN1c2ccccc2Sc2ccc(Cl)cc21 [Chlorpromazine] + CCC[C@@H]1C[C@@H](C(=O)N[C@@H]([C@H]2O[C@H](SC)[C@H](O)[C@@H](O)[C@H]2O)[C@@H](C)O)N(C)C1 [Lincomycin],Bliss interaction score,S. aureus DSM 20231,-0.233
CN(C)CCCN1c2ccccc2Sc2ccc(Cl)cc21 [Chlorpromazine] + CN(C)C(=O)C(CCN1CCC(O)(c2ccc(Cl)cc2)CC1)(c1ccccc1)c1ccccc1 [Loperamide],Bliss interaction score,S. aureus DSM 20231,-0.311
CN(C)CCCN1c2ccccc2Sc2ccc(Cl)cc21 [Chlorpromazine] + CN[C@H](CC(C)C)C(=O)N[C@H]1C(=O)N[C@@H](CC(N)=O)C(=O)N[C@H]2C(=O)N[C@H]3C(=O)N[C@H](C(=O)N[C@H](C(=O)O)c4cc(O)cc(O)c4-c4cc3ccc4O)[C@H](O[C@H]3C[C@](C)(N)[C@@H](O)[C@H](C)O3)c3ccc(c(Cl)c3)Oc3cc2cc(c3O[C@@H]2O[C@H](CO)[C@@H](O)[C@H](O)[C@H]2O[C@H]2C[C@](C)(NCc3ccc(-c4ccc(Cl)cc4)cc3)[C@@H](O)[C@H](C)O2)Oc2ccc(cc2Cl)[C@H]1O [Oritavancin],Bliss interaction score,S. aureus DSM 20231,-0.202
CN(C)CCCN1c2ccccc2Sc2ccc(Cl)cc21 [Chlorpromazine] + C[C@H]1c2cccc(O)c2C(=O)C2=C(O)[C@]3(O)C(=O)C(C(N)=O)=C(O)[C@@H](N(C)C)[C@@H]3[C@@H](O)[C@@H]21 [Doxycycline],Bliss interaction score,S. aureus DSM 20231,-0.263
O=C(O)[C@H]1/C(=C/CO)O[C@@H]2CC(=O)N21 [Clavulanic] + C/C(=C\C(=O)OCCCCCCCCC(=O)O)C[C@@H]1OC[C@H](C[C@@H]2O[C@H]2[C@@H](C)[C@H](C)O)[C@@H](O)[C@H]1O [Pseudomonic acid],Bliss interaction score,B. subtilis 168,-0.0513
same,Bliss interaction score,S. pneumoniae D39V,-0.0849
O=C(O)[C@H]1/C(=C/CO)O[C@@H]2CC(=O)N21 [Clavulanic] + CN[C@@H]1[C@H](O[C@H]2[C@H](O[C@H]3[C@H](O)[C@@H](O)[C@H](N=C(N)N)[C@@H](O)[C@@H]3N=C(N)N)O[C@@H](C)[C@]2(O)C=O)O[C@@H](CO)[C@H](O)[C@H]1O [Streptomycin],Bliss interaction score,B. subtilis 168,0.0954
same,Bliss interaction score,S. aureus Newman,0.218
same,Bliss interaction score,S. pneumoniae D39V,0.0425
CNC(C)C1CCC(N)C(OC2C(N)CC(N)C(OC3OCC(C)(O)C(NC)C3O)C2O)O1 (centres undefined) [Gentamicin] + CC(C)Cc1ccc(C(C)C(=O)O)cc1 [Ibuprofen],Bliss interaction score,S. aureus DSM 20231; main component drawn,-0.442
CNC(C)C1CCC(N)C(OC2C(N)CC(N)C(OC3OCC(C)(O)C(NC)C3O)C2O)O1 (centres undefined) [Gentamicin] + CCCSc1nc(N[C@@H]2C[C@H]2c2ccc(F)c(F)c2)c2nnn([C@@H]3C[C@H](OCCO)[C@@H](O)[C@H]3O)c2n1 [Ticagrelor],Bliss interaction score,S. aureus DSM 20231; main component drawn,-0.576
CNC(C)C1CCC(N)C(OC2C(N)CC(N)C(OC3OCC(C)(O)C(NC)C3O)C2O)O1 (centres undefined) [Gentamicin] + CCCc1nc2c(C)cc(-c3nc4ccccc4n3C)cc2n1Cc1ccc(-c2ccccc2C(=O)O)cc1 [Telmisartan],Bliss interaction score,S. aureus DSM 20231; main component drawn,0.241
CNC(C)C1CCC(N)C(OC2C(N)CC(N)C(OC3OCC(C)(O)C(NC)C3O)C2O)O1 (centres undefined) [Gentamicin] + CC[C@H](c1ccc(O)cc1)[C@@H](CC)c1ccc(O)cc1 [Hexestrol],Bliss interaction score,S. aureus DSM 20231; main component drawn,-0.536
CNC(C)C1CCC(N)C(OC2C(N)CC(N)C(OC3OCC(C)(O)C(NC)C3O)C2O)O1 (centres undefined) [Gentamicin] + O=C(O)Cc1cc(I)c(Oc2ccc(O)c(I)c2)c(I)c1 [Tiratricol],Bliss interaction score,S. aureus DSM 20231; main component drawn,0.264
c1ccc2c(CC3=NCCN3)cccc2c1 [Naphazoline] + COc1cc(Cc2cnc(N)nc2N)cc(OC)c1OC [Trimethoprim],Bliss interaction score,S. aureus DSM 20231,0.236
CN1CCC[C@H]1c1cccnc1 [Nicotine] + CC[C@H]1OC(=O)[C@H](C)C(=O)[C@H](C)[C@@H](O[C@@H]2O[C@H](C)C[C@H](N(C)C)[C@H]2O)[C@](C)(OC)C[C@@H](C)C(=O)[C@H](C)[C@H]2N(CCCCn3cnc(-c4cccnc4)c3)C(=O)O[C@]12C [Telithromycin],Bliss interaction score,S. aureus DSM 20231,-0.342
Cc1onc(-c2ccccc2)c1C(=O)N[C@@H]1C(=O)N2[C@@H]1SC(C)(C)[C@@H]2C(=O)O [Oxacillin] + CCCSc1nc(N[C@@H]2C[C@H]2c2ccc(F)c(F)c2)c2nnn([C@@H]3C[C@H](OCCO)[C@@H](O)[C@H]3O)c2n1 [Ticagrelor],Bliss interaction score,S. aureus DSM 20231,0.171
Cc1onc(-c2ccccc2)c1C(=O)N[C@@H]1C(=O)N2[C@@H]1SC(C)(C)[C@@H]2C(=O)O [Oxacillin] + Cc1c(Cl)cccc1Nc1ccccc1C(=O)O [Tolfenamic],Bliss interaction score,S. aureus DSM 20231,0.138
CN(N=O)C(=O)N[C@@H](C=O)[C@@H](O)[C@H](O)[C@H](O)CO [Streptozotocin] + CCCSc1nc(N[C@@H]2C[C@H]2c2ccc(F)c(F)c2)c2nnn([C@@H]3C[C@H](OCCO)[C@@H](O)[C@H]3O)c2n1 [Ticagrelor],Bliss interaction score,S. aureus DSM 20231,0.221
Cc1cc(NS(=O)(=O)c2ccc(N)cc2)no1 [Sulfamethoxazol] + CCCSc1nc(N[C@@H]2C[C@H]2c2ccc(F)c(F)c2)c2nnn([C@@H]3C[C@H](OCCO)[C@@H](O)[C@H]3O)c2n1 [Ticagrelor],Bliss interaction score,S. aureus DSM 20231,0.254
CC[C@H]1OC(=O)[C@H](C)C(=O)[C@H](C)[C@@H](O[C@@H]2O[C@H](C)C[C@H](N(C)C)[C@H]2O)[C@](C)(OC)C[C@@H](C)C(=O)[C@H](C)[C@H]2N(CCCCn3cnc(-c4cccnc4)c3)C(=O)O[C@]12C [Telithromycin] + Cc1ccc(C(C)C)c(O)c1 [Thymol],Bliss interaction score,S. aureus DSM 20231,-0.222
Cc1c(Cl)cccc1Nc1ccccc1C(=O)O [Tolfenamic] + CN[C@H](CC(C)C)C(=O)N[C@H]1C(=O)N[C@@H](CC(N)=O)C(=O)N[C@H]2C(=O)N[C@H]3C(=O)N[C@H](C(=O)N[C@H](C(=O)O)c4cc(O)cc(O)c4-c4cc3ccc4O)[C@H](O)c3ccc(c(Cl)c3)Oc3cc2cc(c3O[C@@H]2O[C@H](CO)[C@@H](O)[C@H](O)[C@H]2O[C@H]2C[C@](C)(N)[C@H](O)[C@H](C)O2)Oc2ccc(cc2Cl)[C@H]1O [Vancomycin],Bliss interaction score,S. aureus DSM 20231,0.124
Cc1c(Cl)cccc1Nc1ccccc1C(=O)O [Tolfenamic] + COc1cc(Cc2cnc(N)nc2N)cc(OC)c1OC [Trimethoprim],Bliss interaction score,S. aureus DSM 20231,-0.185
